Laboratory results taken from US20180085362A1, “COMBINATION OF PHOSPHATIDYLINOSITOL-3-KINASE (PI3K) INHIBITOR AND A MTOR INHIBITOR” (Novartis AG, priority 2011, published 2018).
pIC50: −log10 of the molar value.

Columns and labels:
[1] = system: ZR-75-1 human breast cancer cell line; assay: CellTiter-Glo cell proliferation assay, dose matrix, ZR-75-1; assay type: cell-based; settings: for Amax (maximum fraction of inhibition): ZR-75-1, 72 hrs, fraction growth inhibition compare to DMSO control, everolimus 1 nM-27 nM, Compound I 4 nM-3 μM
[2] = system: T47-D human breast cancer cell line; assay: CellTiter-Glo cell proliferation assay, dose matrix, T47-D; assay type: cell-based; settings: 72 hrs; for Amax (maximum fraction of inhibition): fraction growth inhibition compare to DMSO control, everolimus 1 nM-27 nM, Compound I 4 nM-3 μM
Description: The human breast cancer cell line T47-D is purchased from American Type Cell Collection. The T47-D human breast cancer cell line includes PIK3CA mutation.
(§1) Cell viability is determined by measuring cellular ATP content using the CellTiter-Glo® Luminescent Cell Viability Assay (Promega #G7573) according to manufacturer's protocol.
(§2) Single agent dose responding curves, IC50, IC90, and the Synergy are all analyzed using Chalice software (CombinatoRx, Cambridge Mass.). Synergy is calculated by comparing a combination's response to those of its single agents, against the drug-with-itself dose-additive reference model. Deviations from dose additivity can be assessed visually on an Isobologram or numerically with a Combination Index. Excess inhibition compare to additivity can also be plotted as a full dose-matrix chart to capture where the synergies occur. To quantify the overall strength of combination effects, a volume score VHSA=ΣX,Y InfX InfY (Idata−IHSA) is also calculated between the data and the highest-single-agent surface, normalized for single agent dilution factors fX,fY.
The experiment setup is identical to the experiment procedure described above for the SKBR-3 model (FIG. 15).

[3] = system: SKBR-3 human breast cancer cell line; assay: CellTiter-Glo cell proliferation assay, dose matrix, SKBR-3; assay type: cell-based; settings: SKBR-3, 72 hrs; for Amax, the maximum fraction of inhibition: fraction growth inhibition compare to DMSO control, everolimus 1 nM-27 nM, Compound I 4 nM-3 μM
Description: The human breast cancer cell line SKBR-3 is purchased from American Type Cell Collection. The SKBR-3 human breast cancer cell line is HER2 amplified.
Single agent dose responding curves, IC50, IC90, and the Synergy are all analyzed using Chalice software (CombinatoRx, Cambridge Mass.). Synergy is calculated by comparing a combination's response to those of its single agents, against the drug-with-itself dose-additive reference model. Deviations from dose additivity can be assessed visually on an Isobologram or numerically with a Combination Index. Excess inhibition compare to additivity can also be plotted as a full dose-matrix chart to capture where the synergies occur. To quantify the overall strength of combination effects, a volume score VHSA=ΣX,Y, InfX InfY (Idata−IHSA) is also calculated between the data and the highest-single-agent surface, normalized for single agent dilution factors fX,fY.
The cells are plated at 3000 cells per well in 384 well plates in triplicates, and treated with compound for 72 hrs before the measurement (FIG. 13).

[4] = system: BT-474 human breast cancer cell line; assay: CellTiter-Glo cell proliferation assay, dose matrix, BT-474; assay type: cell-based; settings: BT-474, 72 hrs; for Amax (maximum fraction of inhibition): fraction growth inhibition compare to DMSO control, everolimus 1 nM-27 nM, Compound I 4 nM-3 μM
Description: as §1, §2
The experiment setup is identical to the experiment procedure described above for the SKBR-3 model (FIG. 14).

[5] = Toxicity (body weight, deaths) in DU145 xenograft study; assay type: in vivo, nude mice (nu/nu); set-up: key to Mean BW Nadir: — indicates no decrease in mean body weight is observed; settings: for Deaths (TR/NTR): ten mice
Description: Paclitaxel is administered via bolus tail veil injections (i.v.) once daily on alternate days for five doses (qod×5). The dosing volume, 10 mL/kg ( )0.2 mL/20 g mouse), is scaled to the weight to each animal as determined on the day of dosing, except on weekends, when the Friday BWs are carried forward.
11 groups of nude mice (n=10 per group) are treated as follows: Group 1 mice receives Vehicle 1 and Vehicle 2, and served as controls for all analyses. […] Groups 5-7 receives monotherapies with 2.5, 5, and 10 mg/kg RAD001, respectively. […] Group 11 receives 25 mg/kg paclitaxel.
Animals are weighed on Days 1-5, and on each treatment day (except weekend days) until the end of the study. Acceptable toxicity for the maximum tolerated dose is defined as a group mean BW loss of less than 15% during the test, and not more than one treatment-related (TR) death among ten animals. Any animal with BW losses exceeding 20% for one measurement, is to be euthanized and classified as a TR death, unless it is the first death in the group. Non-treatment-related (NTR) deaths are to be categorized as NTRa (due to accident or error), NTRu (due to unknown causes), or NTRm (necropsy-confirmed tumor dissemination by invasion and/or metastasis).

[6] = system: DU145 human prostate carcinoma; assay: Tumor growth inhibition, DU145 human prostate carcinoma nude mouse xenograft model; settings: for Mean volume Change: Day 1 to Day 21; for T/C: Day 21
[7] = single agent, read-out: IC50 (cell growth)
[8] = Group 2: Compound I 12.5 mg/kg p.o. qd×21
[9] = Group 3: Compound I 25 mg/kg p.o. qd×21
[10] = Group 4: Compound I 50 mg/kg p.o. qd×21
[11] = Group 11: Paclitaxel 25 mg/kg i.v. qod×5
[12] = Group 5: RAD001 2.5 mg/kg p.o. qd×21
[13] = Group 6: RAD001 5 mg/kg p.o. qd×21
[14] = Group 7: RAD001 10 mg/kg p.o. qd×21

Cc1nc(NC(=O)N2CCC[C@H]2C(N)=O)sc1-c1ccnc(C(C)(C)C(F)(F)F)c1 [Compound I, (S)-Pyrrolidine-1,2-dicarboxylic acid 2-amide 1-({4-methyl-5-[2-(2,2,2-trifluoro-1,1-dimethyl-ethyl)-pyridin-4-yl]-thiazol-2-yl}-amide)]
Amax (maximum fraction of inhibition) [1]: around 0.16
Amax (maximum fraction of inhibition) [2]: around 0.67
pIC50 [2, 7]: ~6.48
Amax, the maximum fraction of inhibition [3]: 0.40
Amax (maximum fraction of inhibition) [4]: around 0.53
pIC50 [4, 7]: ~5.52
Mean BW Nadir [5, 8]: —
Deaths (TR/NTR) [5, 8]: 0/0
Mean BW Nadir [5, 9]: —
Deaths (TR/NTR) [5, 9]: 0/0
Mean BW Nadir ([5]; Group 4: Compound I 50 mg/kg p.o. qd×21, % change from Day 1, nadir Day 8): −8.1%
Deaths (TR/NTR) [5, 10]: 3/0
Mean volume Change [6, 8]: 501 mm^3
T/C [6, 8]: (T/C = 64%)
Statistical Signif. vs. G1 ([6]; Group 2: Compound I 12.5 mg/kg, Kruskal-Wallis with Dunn's test): ns (vs. G1)
Mean volume Change [6, 9]: 129 mm^3
Statistical Signif. vs. G1 ([6]; Group 3: Compound I 25 mg/kg, Kruskal-Wallis with Dunn's test): *** (vs. G1) (*** = P < 0.001)
Mean volume Change [6, 10]: 150 mm^3
T/C [6, 10]: (T/C = 19%)

CC(=O)O[C@H]1C(=O)[C@@]2(C)[C@H]([C@H](OC(=O)c3ccccc3)[C@]3(O)C[C@H](OC(=O)[C@H](O)[C@@H](NC(=O)c4ccccc4)c4ccccc4)C(C)=C1C3(C)C)[C@]1(OC(C)=O)CO[C@@H]1C[C@@H]2O [Paclitaxel]
Mean BW Nadir ([5]; Group 11: Paclitaxel 25 mg/kg i.v. qod×5, % change from Day 1, nadir Day 12): −1.9%
Deaths (TR/NTR) [5, 11]: 0/1
Mean volume Change [6, 11]: 898 mm^3
T/C [6, 11]: (TIC = 115%)
Statistical Signif. vs. G1 ([6]; Group 11: Paclitaxel 25 mg/kg, Mann-Witney U test): ns (using

CO[C@H]1C[C@@H]2CC[C@@H](C)[C@@](O)(O2)C(=O)C(=O)N2CCCC[C@H]2C(=O)O[C@H]([C@H](C)C[C@@H]2CC[C@@H](OCCO)[C@H](OC)C2)CC(=O)[C@H](C)/C=C(\C)[C@@H](O)[C@@H](OC)C(=O)[C@H](C)C[C@H](C)/C=C/C=C/C=C/1C [everolimus (RAD001), (1R,9S,12S,15R,16E,18R,19R, 21R,23S,24E,26E,28E,30S,32S,35R)-1,18-dihydroxy-12-{(1R)-2-[(1 S,3R,4R)-4-(2-hydroxyethoxy)-3-methoxycyclohexyl]-1-methylethyl}-19,30-dimethoxy-15,17,21,23,29,35-hexamethyl-11,36-dioxa-4-aza-tricyclo[30.3.1.04,9] hexatriaconta-16,24, 26,28-tetraene-2,3,10,14,20-pentaone]
pIC50 ([1]; Homo sapiens, ZR-75-1, 72 h, read-out: IC50 (cell proliferation)): ~7.82
Amax (maximum fraction of inhibition) [1]: 0.55
Amax (maximum fraction of inhibition) [2]: 0.37
IC50 (cell growth) ([2]; single agent): never achieved an IC50
Amax, the maximum fraction of inhibition [3]: 0.32
IC50 (cell proliferation) ([3]; single agent, 1 nM-27 nM): never achieved an IC50
Amax (maximum fraction of inhibition) [4]: 0.36
IC50 (cell growth) ([4]; single agent): never achieves an IC50
Mean BW Nadir [5, 12]: —
Deaths (TR/NTR) [5, 12]: 0/0
Mean BW Nadir [5, 13]: —
Deaths (TR/NTR) [5, 13]: 0/0
Mean BW Nadir [5, 14]: —
Deaths (TR/NTR) [5, 14]: 0/0
Mean volume Change [6, 12]: 424 mm^3
T/C [6, 12]: (T/C = 54%)
Statistical Signif. vs. G1 ([6]; Group 5: RAD001 2.5 mg/kg, Kruskal-Wallis with Dunn's test): ns (vs. G1)
Mean volume Change [6, 13]: 269 mm^3
T/C [6, 13]: (T/C = 43%)
Statistical Signif. vs. G1 ([6]; Group 6: RAD001 5 mg/kg, Kruskal-Wallis with Dunn's test): * (vs. G1) (* = P < 0.05)
Mean volume Change [6, 14]: 341 mm^3
T/C [6, 14]: (T/C = 43%)
Statistical Signif. vs. G1 ([6]; Group 7: RAD001 10 mg/kg, Kruskal-Wallis with Dunn's test): ns (vs. G1)
